Source: PubChem BioAssay AID1963826 (Molecular Pharmacology Branch, DTP, NCI, 2024)

System: 926638-142-R-J1-PDC complex spheroid viability
Assay: Anticancer human tumor 926638-142-R-J1-PDC patient-derived endometrial carcinoma cell line growth inhibition [POLQ]
Details: for IC50: curve of first compound; for viability, T/C: stronger effect = lower value
Protocol: Multicellular complex tumor spheroid response to Polymerase (POL) inhibitors (novobiocin, ART-558, RP6685) in combination with a variety of drugs and investigational agents in selected tumor cell lines
The POL inhibitors (novobiocin, ART-558, and RP6685) were evaluated both individually and in combination with standard of care and investigational anticancer small molecules within a complex spheroid model of solid tumors. . Complex spheroids include a stromal component modeled by human endothelial cells (HUVEC) and fibroblasts modeled by human mesenchymal stem cells (MSCs). The concentration ranges selected for each drug and investigational agent were based upon clinically achievable concentrations if the clinical Cmax of the agent was known.
Compounds. The drugs and investigational agents: novobiocin (NSC847541), ART-558 (NSC835418), RP-6685 (NSC848927), peposertib (NSC802822), ceralasertib (NSC780249), elimusertib (NSC800525), camonsertib (NSC841442), AZD-1390 (NSC803789), olaparib (NSC753686), talazoparib (NSC767125), rucaparib (NSC756644), sotorasib (NSC818433), MRTX-1133 (NSC836407), SN-38 (NSC673596), topotecan (NSC609699), epotoside (NSC141540), doxorubicin (NSC123127), gemcitabine (NSC613327), 5-fluorouracil (NSC19893), paclitaxel (NSC125973), vemurafenib (NSC761431), MSA-2 (NSC828583), SN-011 (NSC837082), adavosertib (NSC754352), prexasertib (NSC758257), carboplatin (NSC241240) and oxaliplatin (NSC266046), were obtained from the National Cancer Institute (NCI) Developmental Therapeutics Program Chemical Repository (21). The FDA-approved anticancer drug set is available from the Developmental Therapeutics Program at https://dtp.cancer.gov/organization/dscb/obtaining/. […] The stock solutions were prepared in dimethyl sulfoxide (DMSO, Sigma-Aldrich, St. Louis, MO, cat. D2650), except for the platinum compounds which were prepared in saline (Quality Biological, Gaithersburg, MD, cat. 114-055-101), at 800-fold the tested concentration and stored at -70 degrees C prior to their use. All drugs and investigational agents were tested over a range starting from a high concentration at or near the clinical Cmax and decreasing in half-log increments. If the clinical Cmax for an agent had not been determined, the highest concentration tested was 10 microM, except for SN-38, which was tested at a high concentration of 1 microM.
Cell Culture. All cells were maintained in an incubator at 37 degrees C and 5% CO2 with 95% humidity. The PDC lines were cultured according to standard operating procedures established by the NCI PDMR (https://pdmr.cancer.gov). Table 3 of the manuscript, lists the cell lines along with the number of the three cell types plated to form the mct-spheroids and media for tumor cell growth. After thawing, all PDC lines, except 997537-175-T-J1-PDC and 415267-285-R-J2-PDC, were cultured in Matrigel-coated flasks prepared with a working solution of 1X Ham's F-12 nutrient mix, without supplementation (Thermo Fisher Scientific, cat. 11765054), 100 U/mL penicillin-streptomycin (Thermo Fisher Scientific, cat. 15140122), and 2.5% Matrigel (Corning Inc., Corning, NY, cat. 354248) for the first three passages. The two PDC lines 997537-175-T-J1-PDC and 415267-285-R-J2-PDC were cultured on uncoated flasks. The 857933-349-R-J2-PDC line was cultured in 6C/Colon 1B media containing advanced DMEM/F-12 (Thermo Fisher Scientific, cat. 12634028), 10 mM HEPES (Thermo Fisher Scientific, cat. 15630080), 1X GlutaMAX supplement (Thermo Fisher Scientific, cat. 35050061), 0.1 mg/mL primocin (InvivoGen, San Diego, CA, cat. ant-pm-2), 10% defined fetal bovine serum, heat inactivated (HyClone Laboratories Inc., Logan, UT, cat. SH30070.03HI), 50% L-WRN conditioned media (ATCC, cat. CRL-3276), 1.25 mM N-Acetyl-L-cysteine (Sigma-Aldrich, cat. A9165), 10 mM nicotinamide (Sigma-Aldrich, cat. N0636), 1X B-27 supplement (Thermo Fisher Scientific, cat. 17504044), 1X N-2 supplement (Thermo Fisher Scientific, cat. […]

[1] = second compound 0.0316 µM, first compound 0.00316 µM
[2] = second compound 0.0316 µM, first compound 0.01 µM
[3] = second compound 0.0316 µM, first compound 0.0316 µM
[4] = second compound 0.0316 µM, first compound 0.1 µM
[5] = second compound 0.1 µM, first compound 0.00316 µM
[6] = second compound 0.1 µM, first compound 0.01 µM
[7] = second compound 0.1 µM, first compound 0.0316 µM
[8] = second compound 0.1 µM, first compound 0.1 µM
[9] = second compound 0.316 µM, first compound 0.00316 µM
[10] = second compound 0.316 µM, first compound 0.01 µM
[11] = second compound 0.316 µM, first compound 0.0316 µM
[12] = second compound 0.316 µM, first compound 0.1 µM
[13] = second compound 1 µM, first compound 0.00316 µM
[14] = second compound 1 µM, first compound 0.01 µM
[15] = second compound 1 µM, first compound 0.0316 µM
[16] = second compound 1 µM, first compound 0.1 µM
[17] = second compound 3.16 µM, first compound 0.00316 µM
[18] = second compound 3.16 µM, first compound 0.01 µM
[19] = second compound 3.16 µM, first compound 0.0316 µM
[20] = second compound 3.16 µM, first compound 0.1 µM
[21] = second compound 10 µM, first compound 0.00316 µM
[22] = second compound 10 µM, first compound 0.01 µM
[23] = second compound 10 µM, first compound 0.0316 µM
[24] = second compound 10 µM, first compound 0.1 µM
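Also: spheroids exposed to drugs for one week before readout.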
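For viability, T/C in this document: percent viability relative to DMSO vehicle control wells set as 100%.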

Structure (SMILES): COc1cccc(OCCCN)c1-c1cc(Nc2cnc(C#N)cn2)n[nH]1 + COC1C(OC(N)=O)C(O)C(Oc2ccc3c(O)c(NC(=O)c4ccc(O)c(CC=C(C)C)c4)c(=O)oc3c2C)OC1(C)C
- IC50 (second compound 0.0316 µM): 146 nM
- IC50 (second compound 0.1 µM): 122 nM
- IC50 (second compound 0.316 µM): 113 nM
- IC50 (second compound 1 µM): 107 nM
- IC50 (second compound 3.16 µM): 70.5 nM
- IC50 (second compound 10 µM): 77.7 nM
- viability, T/C [1]: 104%
- viability, T/C [2]: 96.4%
- viability, T/C [3]: 65.9%
- viability, T/C [4]: 61.8%
- viability, T/C (second compound 0.0316 µM, first compound 0.316 µM): 36%
- viability, T/C (second compound 0.0316 µM, first compound 1 µM): 24.8%
- viability, T/C [5]: 111%
- viability, T/C [6]: 79%
- viability, T/C [7]: 68.3%
- viability, T/C [8]: 56.6%
- viability, T/C (second compound 0.1 µM, first compound 0.316 µM): 39%
- viability, T/C (second compound 0.1 µM, first compound 1 µM): 31.5%
- viability, T/C [9]: 94.2%
- viability, T/C [10]: 74.5%
- viability, T/C [11]: 62.7%
- viability, T/C [12]: 51.4%
- viability, T/C (second compound 0.316 µM, first compound 0.316 µM): 42.2%
- viability, T/C (second compound 0.316 µM, first compound 1 µM): 35.2%
- viability, T/C [13]: 87.7%
- viability, T/C [14]: 77.9%
- viability, T/C [15]: 47.3%
- viability, T/C [16]: 56.4%
- viability, T/C (second compound 1 µM, first compound 0.316 µM): 49.1%
- viability, T/C (second compound 1 µM, first compound 1 µM): 29.6%
- viability, T/C [17]: 92.6%
- viability, T/C [18]: 89.3%
- viability, T/C [19]: 60.4%
- viability, T/C [20]: 46.2%
- viability, T/C (second compound 3.16 µM, first compound 0.316 µM): 46.5%
- viability, T/C (second compound 3.16 µM, first compound 1 µM): 31.7%
- viability, T/C [21]: 81.2%
- viability, T/C [22]: 80.8%
- viability, T/C [23]: 65%
- viability, T/C [24]: 44.5%
- viability, T/C (second compound 10 µM, first compound 0.316 µM): 36.9%
- viability, T/C (second compound 10 µM, first compound 1 µM): 27.9%

Structure (SMILES): Cn1ncnc1[C@H]1c2n[nH]c(=O)c3cc(F)cc(c23)N[C@@H]1c1ccc(F)cc1 + COC1C(OC(N)=O)C(O)C(Oc2ccc3c(O)c(NC(=O)c4ccc(O)c(CC=C(C)C)c4)c(=O)oc3c2C)OC1(C)C
- IC50 (second compound 0.0316 µM): > 100 nM
- IC50 (second compound 0.1 µM): > 100 nM
- IC50 (second compound 0.316 µM): > 100 nM
- IC50 (second compound 1 µM): > 100 nM
- IC50 (second compound 3.16 µM): > 100 nM
- IC50 (second compound 10 µM): > 100 nM
- viability, T/C (second compound 0.0316 µM, first compound 0.000316 µM): 84.5%
- viability, T/C (second compound 0.0316 µM, first compound 0.001 µM): 83.7%
- viability, T/C [1]: 81.7%
- viability, T/C [2]: 86.5%
- viability, T/C [3]: 71.5%
- viability, T/C [4]: 79.5%
- viability, T/C (second compound 0.1 µM, first compound 0.000316 µM): 106%
- viability, T/C (second compound 0.1 µM, first compound 0.001 µM): 96.4%
- viability, T/C [5]: 86%
- viability, T/C [6]: 90.5%
- viability, T/C [7]: 76.3%
- viability, T/C [8]: 69.5%
- viability, T/C (second compound 0.316 µM, first compound 0.000316 µM): 117%
- viability, T/C (second compound 0.316 µM, first compound 0.001 µM): 86.4%
- viability, T/C [9]: 72.7%
- viability, T/C [10]: 78.5%
- viability, T/C [11]: 69.7%
- viability, T/C [12]: 60.3%
- viability, T/C (second compound 1 µM, first compound 0.000316 µM): 85.5%
- viability, T/C (second compound 1 µM, first compound 0.001 µM): 94.1%
- viability, T/C [13]: 92.3%
- viability, T/C [14]: 60.1%
- viability, T/C [15]: 78.6%
- viability, T/C [16]: 76.7%
- viability, T/C (second compound 3.16 µM, first compound 0.000316 µM): 68.5%
- viability, T/C (second compound 3.16 µM, first compound 0.001 µM): 81.7%
- viability, T/C [17]: 74.3%
- viability, T/C [18]: 81.7%
- viability, T/C [19]: 78.5%
- viability, T/C [20]: 69.6%
- viability, T/C (second compound 10 µM, first compound 0.000316 µM): 84.8%
- viability, T/C (second compound 10 µM, first compound 0.001 µM): 90.2%
- viability, T/C [21]: 77.6%
- viability, T/C [22]: 81%
- viability, T/C [23]: 82.4%
- viability, T/C [24]: 76.6%
